From patent EP0193189A1, “Novel compound, its production and insecticidal and acaricidal composition containing it as an active ingredient” (SUMITOMO CHEMICAL COMPANY, LIMITED, priority 1985, dated 1986)
≈ marks a conversion by molar mass, not a printed value.

system: tobacco cutworms (Spodoptera litura); experiment: Test Example 2: tobacco cutworm larvae on treated artificial feed; assay type: in vivo; conditions: Spodoptera litura, 144 h
Excerpt: The emulsifiable concentrates of the following present compounds obtained according to Formulation example 2 were each diluted with water to obtain respective 667 times dilution aqueous solutions (corresponding to 150 ppm) containing said compounds, respectively. Two ml of thus diluted solutions were impregnated into the artificial feeds (13 g) for tobacco cutworms (Spodoptera litura) and thus prepared feeds were placed in polyethylene cups of 11 cm in diameter, respectively. Ten of the 4th instar larvae were liberated thereon.
Six days after, the dead and alive of the larvae were examined to calculate the mortality (two replications).

SMILES	mortality at 150 ppm [%]
C#CC(C)(CCCc1cccc(Oc2ccccc2)c1)c1ccc(OCC=C)cc1 (stereo not drawn) [(7), 3-(4-allyloxyphenyl)-3-methyl-6-(3-phenoxyphenyl)-1-hexyne]	100
C#CC(C)(CCCc1cccc(Oc2ccccc2)c1)c1ccc(OCC)cc1 (stereo not drawn) [(3), 3-(4-ethoxyphenyl)-3-methyl-6-(3-phenoxyphenyl)-1-hexyne]	100

same assay, conditions: Spodoptera litura, 144 h; 150 ppm solution, 2 ml in 13 g artificial feed; 4th instar larvae; six days after; read-out: Mortality (%)

SMILES	mortality at 150 ppm [%]
C#CC(C)(CCCc1cccc(Oc2ccccc2)c1)c1ccc(OC(F)F)cc1 (stereo not drawn) [(17), 3-(4-difluoromethoxyphenyl)-3-methyl-6-(3-phenoxyphenyl)-l-hexyne]	100

system: brown rice planthoppers (Nila^parvata luqens); experiment: Test Example 7: spray on potted rice plants, brown rice planthopper, residual effect; assay type: in vivo; conditions: 20 h, read-out: Mortality (%) liberated 4 days after application
Procedure: The emulsifiable concentrates of the following compounds and control compounds obtained according to Formulation example 2 were each diluted with water one thousand times (corresponding to 100 ppm) and each of thus prepared solutions was sprayed at the rate of 20 ml/2 pots to the rice plant seedlings planted in Wagner pots having a surface area of one ten thousandth are. After air-drying, the treated plants were covered with the iron wire cages, and about 15 adults of brown rice planthoppers (Nila^parvata luqens) were liberated thereto. Further, about 15 adults thereof were also liberated thereto 4 days after the application to examine the residual effects. Twenty hours after each liberation, the dead and alive adults were examined to calculate the mortality.

SMILES	mortality at 100 ppm [%]
C#CC(C)(CCCc1cccc(Oc2ccccc2)c1)c1ccc(OCC=C)cc1 (stereo not drawn) [(7), 3-(4-allyloxyphenyl)-3-methyl-6-(3-phenoxyphenyl)-1-hexyne]	93
C#CC(C)(CCCc1cccc(Oc2ccccc2)c1)c1ccc(OCC)cc1 (stereo not drawn) [(3), 3-(4-ethoxyphenyl)-3-methyl-6-(3-phenoxyphenyl)-1-hexyne]	95

same assay, conditions: 20 h, read-out: Mortality (%) liberated just after air-drying

SMILES	mortality at 100 ppm [%]
C#CC(C)(CCCc1cccc(Oc2ccccc2)c1)c1ccc(OCC=C)cc1 (stereo not drawn) [(7), 3-(4-allyloxyphenyl)-3-methyl-6-(3-phenoxyphenyl)-1-hexyne]	100
C#CC(C)(CCCc1cccc(Oc2ccccc2)c1)c1ccc(OCC)cc1 (stereo not drawn) [(3), 3-(4-ethoxyphenyl)-3-methyl-6-(3-phenoxyphenyl)-1-hexyne]	100

system: rice stem borer (Chilo suppressalis); experiment: Test Example 5: rice stem borer larvae on treated artificial feed; assay type: in vivo; conditions: 1 ml solution in artificial feed, larvae 10 days old, read-out: LC50 value (ppm)
Excerpt: The emulsifiable concentrates of the following present compounds and control compounds obtained according to Formulation example 2 were each diluted with water to a prescribed concentration, and one ml each of thus prepared solutions was impregnated into the artificial feeds for rice stem borer (Chilo suppressalis) which had been previously prepared in polyethylene cups of 5.5 cm in diameter, respectively. Ten of the larvae of the 10 days old were liberated thereon. The dead and alive larvae were examined to obtain LC50 value (50% lethal concentration) (two replications).

SMILES	LC50 [µg/mL]
C#CC(C)(CCCc1cccc(Oc2ccccc2)c1)c1ccc(OC(F)F)cc1 (stereo not drawn) [(17), 3-(4-difluoromethoxyphenyl)-3-methyl-6-(3-phenoxyphenyl)-l-hexyne]	3.6 (≈ 8.86 µM)

same assay, conditions: read-out: LC50 value (ppm)

SMILES	LC50 [µg/mL]
C#CC(C)(CCCc1cccc(Oc2ccccc2)c1)c1ccc(OCC)cc1 (stereo not drawn) [(3), 3-(4-ethoxyphenyl)-3-methyl-6-(3-phenoxyphenyl)-1-hexyne]	3.6 (≈ 9.36 µM)

system: common mosquito (Culex pipiens pallens); experiment: Test Example 1: common mosquito larvae in diluted emulsifiable concentrate, mortality and emergence inhibition; assay type: in vivo; conditions: Culex pipiens, 24 h
Procedure: The emulsifiable concentrates of the following present compounds obtained according to Formulation example 2 were each diluted with water so as to obtain respective aqueous solutions containing 3.5 ppm of said compounds, respectively. One hundred ml of thus diluted aqueous solutions were poured into respective polyethylene cups of 180 ml volume, and 20 of the last instar larvae of common mosquito (Culex pipiens pallens) were liberated thereto. After one day, the dead or alive of the larvae were examined.
Thereafter, the feed was added to respective cups and the number of emerged pupae of the respective cups was counted when all the pupae of no treatment group had emerged to calculate the inhibitory ratios of the emergence.
The mortality and the inhibitory ratio of the emergence are shown according to the following three criteria: • mortality: A; 90% or more, • B; less than 90% to 10%, • C; less than 10%. • inhibitory: A; 90% or more, ratio of • emergence B; less than 90% to 80% • C; less than 80%.

SMILES	mortality at 3.5 ppm [%]
C#CC(C)(CCCc1cccc(Oc2ccccc2)c1)c1ccc(OCC=C)cc1 (stereo not drawn) [(7), 3-(4-allyloxyphenyl)-3-methyl-6-(3-phenoxyphenyl)-1-hexyne]	10 to 90
C#CC(C)(CCCc1cccc(Oc2ccccc2)c1)c1ccc(OCC)cc1 (stereo not drawn) [(3), 3-(4-ethoxyphenyl)-3-methyl-6-(3-phenoxyphenyl)-1-hexyne]	> 90

same assay, conditions: Culex pipiens, 24 h; 3.5 ppm; 20 last instar larvae; after one day; read-out: Mortality

SMILES	mortality at 3.5 ppm [%]
C#CC(C)(CCCc1cccc(Oc2ccccc2)c1)c1ccc(OC(F)F)cc1 (stereo not drawn) [(17), 3-(4-difluoromethoxyphenyl)-3-methyl-6-(3-phenoxyphenyl)-l-hexyne]	> 90

same assay, conditions: Culex pipiens; 3.5 ppm; counted when all pupae of no treatment group had emerged; read-out: Inhibitory ratio of emergence

SMILES	pest or weed control at 3.5 ppm [%]
C#CC(C)(CCCc1cccc(Oc2ccccc2)c1)c1ccc(OC(F)F)cc1 (stereo not drawn) [(17), 3-(4-difluoromethoxyphenyl)-3-methyl-6-(3-phenoxyphenyl)-l-hexyne]	> 90
C#CC(C)(CCCc1cccc(Oc2ccccc2)c1)c1ccc(OCC=C)cc1 (stereo not drawn) [(7), 3-(4-allyloxyphenyl)-3-methyl-6-(3-phenoxyphenyl)-1-hexyne]	> 90
C#CC(C)(CCCc1cccc(Oc2ccccc2)c1)c1ccc(OCC)cc1 (stereo not drawn) [(3), 3-(4-ethoxyphenyl)-3-methyl-6-(3-phenoxyphenyl)-1-hexyne]	> 90

system: carmine spider mite (Tetranychus cinnabarinus); experiment: Test Example 8: carmine spider mite on potted kidney bean, degree of damage; assay type: in vivo; set-up: key: -: No damage is observed.; +: Slight damage is observed.; ++: The same damage as in the untreated plot is observed; conditions: 500 ppm spray 10 ml/pot plus 2 ml soil treatment; after 8 days
Procedure: The female adults of carmine spider mite (Tetranychus cinnabarinus) were put at a rate of 10 adults/leaf on the leaves of potted kidney bean (at the primordial leaf stage) which had elapsed 7 days after sowing, and placed in a constant-temperature room kept at 25°C. After 6 days, the 200-fold aqueous dilute solutions (corresponding to 500 ppm), prepared from the emulsifiable concentrates of the following present compounds and control compounds prepared according to Formulation example 2, were each sprayed at a rate of 10 ml/pot on a turn table. At the same time, the soil in the pot was treated with 2 ml of each aqueous solution. After 8 days, the degree of damage of the plant by the mite was examined.
Criteria of the effect: • - : No damage is observed. • + : Slight damage is observed. • ++: The same damage as in the untreated plot is observed.

SMILES	Degree of damage
C#CC(C)(CCCc1cccc(Oc2ccccc2)c1)c1ccc(OCC=C)cc1 (stereo not drawn) [(7), 3-(4-allyloxyphenyl)-3-methyl-6-(3-phenoxyphenyl)-1-hexyne]	-
C#CC(C)(CCCc1cccc(Oc2ccccc2)c1)c1ccc(OCC)cc1 (stereo not drawn) [(3), 3-(4-ethoxyphenyl)-3-methyl-6-(3-phenoxyphenyl)-1-hexyne]	-

system: not listed separately; experiment: Test Example 9: fish toxicity test; assay type: in vivo, Cyprinida carpio; conditions: water; young carp; forty-eight hours; 25 ± 1°C; Probit method; read-out: LC50 value (ppm)
Procedure: Twenty liters of each of the aqueous solutions containing the prescribed concentrations of the present compounds and comparative control one, and 10 young carp were liberated thereto. Forty-eight hours after, the dead and alive carp were examined to obtain LC50 value, (50% lethal concentration) according to Probit method. All the tests were carried out in thermostatic aquaria whose temperatures were kept at 25 ± 1°C.
Tested fish: young Japanese carp (Cyprinida carpio) Average body length ± S.D.: 2.94 ± 0.19 cm. Average.body weight ± S.D.: 0.65 ± 0.13 g.

SMILES	LC50 at 48 h [µg/mL]
C#CC(C)(CCCc1cccc(Oc2ccccc2)c1)c1ccc(OCC)cc1 (stereo not drawn) [(3), 3-(4-ethoxyphenyl)-3-methyl-6-(3-phenoxyphenyl)-1-hexyne]	> 10

system: resistant strain of green rice leafhopper (Nephotetix cincticeps); experiment: Test Example 3: rice seedling dip test, resistant green rice leafhopper; assay type: in vivo; conditions: Nephotettix cincticeps, 24 h, read-out: LC50 value (ppm), rice seedlings dipped 1 minute; adults of resistant strain; after one day
Procedure: The emulsifiable concentrates of the following present compounds and control compounds obtained according to Formulation example 2 were each diluted with water to a prescribed concentration, and rice seedlings (about 12 cm in length) were dipped for 1 minute in the resulting aqueous dilute solutions. After air-drying, the seedlings were placed in test tube, and 10 adults of a resistant strain of green rice leafhopper (Nephotetix cincticeps) were liberated in the tube. After one day, the dead and alive of the adults were examined to obtain LC50 (50% lethal concentration)(two replications).

SMILES	LC50 [µg/mL]
C#CC(C)(CCCc1cccc(Oc2ccccc2)c1)c1ccc(OCC)cc1 (stereo not drawn) [(3), 3-(4-ethoxyphenyl)-3-methyl-6-(3-phenoxyphenyl)-1-hexyne]	18 (≈ 46.8 µM)

same assay, conditions: Nephotettix cincticeps, 24 h, rice seedlings dipped 1 minute; adults of resistant strain; after one day; read-out: LC50 value (ppm)

SMILES	LC50 [µg/mL]
C#CC(C)(CCCc1cccc(Oc2ccccc2)c1)c1ccc(OC(F)F)cc1 (stereo not drawn) [(17), 3-(4-difluoromethoxyphenyl)-3-methyl-6-(3-phenoxyphenyl)-l-hexyne]	68 (≈ 167 µM)

system: brown rice planthopper (Nila^parvata luqens); experiment: Test Example 4: rice seedling dip test, brown rice planthopper; assay type: in vivo; conditions: 24 h, read-out: LC50 value (ppm)
Procedure: The emulsifiable concentrates of the-following present compounds and control compounds obtained according to Formulation example 2 were each diluted with water to a prescribed concentration, and the rice seedlings (about 12 cm in length) were dipped for 1 minute in the resulting aqueous dilute solutions. After air-drying, the seedlings were placed in a test tube, and 10 adults of brown rice planthopper (Nila^parvata luqens) were liberated in the tube. After one day, the dead and alive of the adults were examined to obtain LC50 value (50% lethal concentration)(two replications).

SMILES	LC50 [µg/mL]
C#CC(C)(CCCc1cccc(Oc2ccccc2)c1)c1ccc(OCC)cc1 (stereo not drawn) [(3), 3-(4-ethoxyphenyl)-3-methyl-6-(3-phenoxyphenyl)-1-hexyne]	34 (≈ 88.4 µM)
